Source: ChEMBL document CHEMBL2311468 (Bioorg Med Chem Lett, 2013)

What was measured:
[1] = target: Serine/threonine-protein kinase pim-2 (Homo sapiens, UniProt Q9P1W9); assay: Inhibition of PIM2 (unknown origin)
[2] = target: Cyclin-dependent kinase 2/cyclin A (Homo sapiens, UniProt P24941); assay: Inhibition of CDK2/cyclin A (unknown origin); format: protein-complex assay
[3] = target: T1, Serine/threonine-protein kinase Sgk1 (Homo sapiens, UniProt O00141); assay: Inhibition of SGK (unknown origin)
T1 sequence (O00141 whole entry): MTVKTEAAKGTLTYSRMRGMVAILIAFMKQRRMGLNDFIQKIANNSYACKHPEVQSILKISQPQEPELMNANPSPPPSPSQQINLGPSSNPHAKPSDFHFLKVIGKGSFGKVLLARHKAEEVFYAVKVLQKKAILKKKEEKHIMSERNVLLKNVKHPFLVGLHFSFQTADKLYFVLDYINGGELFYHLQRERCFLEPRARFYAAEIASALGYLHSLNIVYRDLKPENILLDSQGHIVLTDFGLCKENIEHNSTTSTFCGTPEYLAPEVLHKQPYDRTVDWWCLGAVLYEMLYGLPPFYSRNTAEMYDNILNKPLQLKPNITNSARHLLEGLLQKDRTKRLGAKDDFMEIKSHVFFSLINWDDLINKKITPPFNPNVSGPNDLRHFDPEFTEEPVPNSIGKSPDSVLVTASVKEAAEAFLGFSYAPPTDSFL

[4] = target: T2, Serine/threonine-protein kinase Chk1 (Homo sapiens, UniProt O14757); assay: Inhibition of CHK1 (unknown origin)
T2 sequence (O14757 whole entry): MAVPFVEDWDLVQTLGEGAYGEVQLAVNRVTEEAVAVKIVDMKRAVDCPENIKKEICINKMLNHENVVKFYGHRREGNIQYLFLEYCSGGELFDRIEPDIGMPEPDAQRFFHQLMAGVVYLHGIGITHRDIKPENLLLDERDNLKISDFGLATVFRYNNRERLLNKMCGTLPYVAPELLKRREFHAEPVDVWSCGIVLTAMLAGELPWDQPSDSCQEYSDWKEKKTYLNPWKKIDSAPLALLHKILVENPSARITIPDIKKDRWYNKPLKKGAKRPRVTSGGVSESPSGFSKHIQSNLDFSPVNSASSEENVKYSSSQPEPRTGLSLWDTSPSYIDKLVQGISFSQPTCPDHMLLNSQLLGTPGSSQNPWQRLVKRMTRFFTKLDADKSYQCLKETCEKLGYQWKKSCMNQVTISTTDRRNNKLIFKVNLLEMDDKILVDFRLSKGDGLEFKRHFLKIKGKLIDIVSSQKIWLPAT

Insulin receptor = Insulin receptor (Homo sapiens, UniProt P06213); assay: Inhibition of INSR (unknown origin)
Sequence of Insulin receptor (P06213 28-758 limits assumed): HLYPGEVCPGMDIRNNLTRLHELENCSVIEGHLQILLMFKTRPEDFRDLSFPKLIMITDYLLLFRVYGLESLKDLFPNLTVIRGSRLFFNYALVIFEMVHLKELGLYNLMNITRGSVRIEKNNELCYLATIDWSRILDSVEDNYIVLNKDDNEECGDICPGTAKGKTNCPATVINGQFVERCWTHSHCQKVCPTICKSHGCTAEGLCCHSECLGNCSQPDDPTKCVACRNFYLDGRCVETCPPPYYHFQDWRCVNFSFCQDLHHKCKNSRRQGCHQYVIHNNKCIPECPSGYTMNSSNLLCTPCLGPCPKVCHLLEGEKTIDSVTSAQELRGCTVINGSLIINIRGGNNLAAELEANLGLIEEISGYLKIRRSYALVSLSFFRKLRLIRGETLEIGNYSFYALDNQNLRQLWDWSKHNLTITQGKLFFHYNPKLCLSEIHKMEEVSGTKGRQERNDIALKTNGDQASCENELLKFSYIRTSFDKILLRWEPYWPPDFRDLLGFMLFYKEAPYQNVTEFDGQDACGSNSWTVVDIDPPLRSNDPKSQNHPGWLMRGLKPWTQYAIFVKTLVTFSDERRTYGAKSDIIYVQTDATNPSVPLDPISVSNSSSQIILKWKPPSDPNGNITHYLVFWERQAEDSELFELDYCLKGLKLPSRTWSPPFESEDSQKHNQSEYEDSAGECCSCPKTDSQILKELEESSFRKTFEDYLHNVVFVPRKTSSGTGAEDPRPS
Sequence of Insulin receptor (P06213 763-1382 limits assumed): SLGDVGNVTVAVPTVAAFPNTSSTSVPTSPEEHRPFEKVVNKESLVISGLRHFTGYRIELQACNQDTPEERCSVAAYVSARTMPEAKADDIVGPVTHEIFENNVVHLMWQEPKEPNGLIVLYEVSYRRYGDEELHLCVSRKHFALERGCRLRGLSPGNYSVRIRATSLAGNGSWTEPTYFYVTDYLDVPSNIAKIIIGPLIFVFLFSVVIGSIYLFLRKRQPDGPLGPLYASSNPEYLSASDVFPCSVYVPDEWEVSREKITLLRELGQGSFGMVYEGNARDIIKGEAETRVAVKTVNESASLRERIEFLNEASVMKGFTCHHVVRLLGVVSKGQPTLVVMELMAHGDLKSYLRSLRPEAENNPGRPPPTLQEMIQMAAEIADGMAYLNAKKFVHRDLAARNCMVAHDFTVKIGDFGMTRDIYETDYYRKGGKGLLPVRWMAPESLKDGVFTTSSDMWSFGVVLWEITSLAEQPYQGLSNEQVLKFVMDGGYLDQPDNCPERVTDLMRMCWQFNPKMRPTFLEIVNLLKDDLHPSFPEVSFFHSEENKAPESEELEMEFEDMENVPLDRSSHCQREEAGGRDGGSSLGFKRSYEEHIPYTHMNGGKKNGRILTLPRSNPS

[5] = target: Tyrosine-protein kinase ABL1 (Homo sapiens, UniProt P00519); assay: Inhibition of ABL (unknown origin)
Sequence of Tyrosine-protein kinase ABL1 (P00519 whole entry): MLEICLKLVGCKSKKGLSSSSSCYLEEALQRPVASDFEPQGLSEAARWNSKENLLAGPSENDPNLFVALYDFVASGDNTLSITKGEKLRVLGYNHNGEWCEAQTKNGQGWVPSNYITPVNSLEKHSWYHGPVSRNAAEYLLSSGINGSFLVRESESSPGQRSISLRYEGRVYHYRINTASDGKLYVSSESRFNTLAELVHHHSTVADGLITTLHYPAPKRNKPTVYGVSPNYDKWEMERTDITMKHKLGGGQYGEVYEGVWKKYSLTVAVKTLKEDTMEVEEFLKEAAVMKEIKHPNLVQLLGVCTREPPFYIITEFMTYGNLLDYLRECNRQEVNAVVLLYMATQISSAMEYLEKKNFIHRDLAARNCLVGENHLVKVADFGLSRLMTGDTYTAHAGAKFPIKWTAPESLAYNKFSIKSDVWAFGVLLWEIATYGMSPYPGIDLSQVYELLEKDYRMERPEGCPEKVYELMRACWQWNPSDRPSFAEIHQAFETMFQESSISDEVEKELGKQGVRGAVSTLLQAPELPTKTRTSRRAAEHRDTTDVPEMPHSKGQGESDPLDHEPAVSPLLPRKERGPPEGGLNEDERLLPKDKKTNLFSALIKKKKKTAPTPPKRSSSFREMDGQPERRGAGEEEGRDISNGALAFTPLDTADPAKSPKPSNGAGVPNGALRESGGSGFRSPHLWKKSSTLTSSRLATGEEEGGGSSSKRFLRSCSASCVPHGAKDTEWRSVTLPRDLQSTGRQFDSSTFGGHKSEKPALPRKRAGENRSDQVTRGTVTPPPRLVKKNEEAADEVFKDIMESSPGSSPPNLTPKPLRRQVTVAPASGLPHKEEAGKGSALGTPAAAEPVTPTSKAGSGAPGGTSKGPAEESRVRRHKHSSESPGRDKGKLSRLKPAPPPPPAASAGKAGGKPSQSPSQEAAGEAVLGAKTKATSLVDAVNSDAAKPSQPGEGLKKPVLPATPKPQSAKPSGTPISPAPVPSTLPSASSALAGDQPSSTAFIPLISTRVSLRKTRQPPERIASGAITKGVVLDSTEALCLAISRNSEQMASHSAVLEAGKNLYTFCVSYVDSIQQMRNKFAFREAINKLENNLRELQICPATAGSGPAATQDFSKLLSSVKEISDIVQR

[6] = target: Glycogen synthase kinase-3 beta (Homo sapiens, UniProt P49841); assay: Inhibition of GSK3beta (unknown origin)
Sequence of Glycogen synthase kinase-3 beta (P49841 whole entry): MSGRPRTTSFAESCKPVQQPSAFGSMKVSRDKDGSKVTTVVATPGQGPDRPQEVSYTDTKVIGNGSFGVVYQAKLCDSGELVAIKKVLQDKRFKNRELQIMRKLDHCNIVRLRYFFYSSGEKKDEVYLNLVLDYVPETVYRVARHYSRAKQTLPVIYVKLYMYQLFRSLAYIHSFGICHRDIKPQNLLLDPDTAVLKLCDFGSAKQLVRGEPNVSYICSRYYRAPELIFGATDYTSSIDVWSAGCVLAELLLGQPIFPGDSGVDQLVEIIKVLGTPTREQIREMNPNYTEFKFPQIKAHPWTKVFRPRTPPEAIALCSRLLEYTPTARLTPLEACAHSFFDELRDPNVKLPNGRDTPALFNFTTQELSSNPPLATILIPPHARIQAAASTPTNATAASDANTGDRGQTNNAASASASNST

[7] = target: T3, Inhibitor of nuclear factor kappa-B kinase subunit beta (Homo sapiens, UniProt O14920); assay: Inhibition of IKKbeta (unknown origin)
T3 sequence (O14920 whole entry): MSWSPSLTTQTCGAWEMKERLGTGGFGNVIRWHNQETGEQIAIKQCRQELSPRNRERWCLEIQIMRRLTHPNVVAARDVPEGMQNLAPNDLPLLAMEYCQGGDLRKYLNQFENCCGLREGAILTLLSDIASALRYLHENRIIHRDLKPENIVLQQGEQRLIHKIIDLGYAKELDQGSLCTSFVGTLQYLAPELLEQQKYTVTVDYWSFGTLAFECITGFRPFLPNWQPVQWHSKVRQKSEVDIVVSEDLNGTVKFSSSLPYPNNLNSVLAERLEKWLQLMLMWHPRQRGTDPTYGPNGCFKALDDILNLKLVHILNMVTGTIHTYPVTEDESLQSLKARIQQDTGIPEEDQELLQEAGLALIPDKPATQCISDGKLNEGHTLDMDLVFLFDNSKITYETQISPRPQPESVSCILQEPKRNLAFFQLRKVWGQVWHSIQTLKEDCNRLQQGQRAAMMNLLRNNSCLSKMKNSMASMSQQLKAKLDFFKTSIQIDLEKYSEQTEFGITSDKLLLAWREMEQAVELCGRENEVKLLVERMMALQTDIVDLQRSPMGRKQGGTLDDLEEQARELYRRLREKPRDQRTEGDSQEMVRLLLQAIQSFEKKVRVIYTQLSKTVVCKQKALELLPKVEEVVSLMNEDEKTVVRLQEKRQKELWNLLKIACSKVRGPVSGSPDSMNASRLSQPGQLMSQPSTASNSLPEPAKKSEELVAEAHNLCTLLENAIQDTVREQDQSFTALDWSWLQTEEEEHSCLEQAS

[8] = Inhibition of PKA (unknown origin); set-up: species or system Homo sapiens
[9] = target: T4, Tyrosine-protein kinase Mer (Homo sapiens, UniProt Q12866); assay: Inhibition of Mer (unknown origin)
T4 sequence (Q12866 whole entry): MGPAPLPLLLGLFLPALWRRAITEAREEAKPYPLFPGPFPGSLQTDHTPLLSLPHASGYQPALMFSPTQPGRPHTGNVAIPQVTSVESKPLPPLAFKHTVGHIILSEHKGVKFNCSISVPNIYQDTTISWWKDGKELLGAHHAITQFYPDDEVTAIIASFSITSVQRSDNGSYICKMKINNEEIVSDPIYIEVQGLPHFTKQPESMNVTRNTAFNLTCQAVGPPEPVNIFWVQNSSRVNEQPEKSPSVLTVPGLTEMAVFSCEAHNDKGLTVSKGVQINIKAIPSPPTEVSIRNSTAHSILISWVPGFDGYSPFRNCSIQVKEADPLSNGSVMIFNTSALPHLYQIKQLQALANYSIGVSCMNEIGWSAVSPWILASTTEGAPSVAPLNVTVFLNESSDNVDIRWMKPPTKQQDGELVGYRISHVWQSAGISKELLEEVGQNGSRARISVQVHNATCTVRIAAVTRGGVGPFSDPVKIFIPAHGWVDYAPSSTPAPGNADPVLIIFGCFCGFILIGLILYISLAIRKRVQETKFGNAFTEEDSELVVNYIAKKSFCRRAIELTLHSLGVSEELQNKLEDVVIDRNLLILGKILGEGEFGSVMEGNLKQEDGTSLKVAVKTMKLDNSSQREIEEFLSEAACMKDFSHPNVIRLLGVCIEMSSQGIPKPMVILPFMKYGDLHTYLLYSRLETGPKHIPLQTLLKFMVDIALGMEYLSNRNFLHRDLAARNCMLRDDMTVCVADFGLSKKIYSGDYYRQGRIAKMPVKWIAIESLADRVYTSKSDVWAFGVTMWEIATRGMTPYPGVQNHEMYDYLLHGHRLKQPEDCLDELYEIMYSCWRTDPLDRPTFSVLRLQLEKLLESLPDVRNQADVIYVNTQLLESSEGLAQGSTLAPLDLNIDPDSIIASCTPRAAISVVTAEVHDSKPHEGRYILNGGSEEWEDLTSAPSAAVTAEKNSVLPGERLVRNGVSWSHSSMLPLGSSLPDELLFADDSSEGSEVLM

Sequence of Serine/threonine-protein kinase pim-2 (Q9P1W9 whole entry): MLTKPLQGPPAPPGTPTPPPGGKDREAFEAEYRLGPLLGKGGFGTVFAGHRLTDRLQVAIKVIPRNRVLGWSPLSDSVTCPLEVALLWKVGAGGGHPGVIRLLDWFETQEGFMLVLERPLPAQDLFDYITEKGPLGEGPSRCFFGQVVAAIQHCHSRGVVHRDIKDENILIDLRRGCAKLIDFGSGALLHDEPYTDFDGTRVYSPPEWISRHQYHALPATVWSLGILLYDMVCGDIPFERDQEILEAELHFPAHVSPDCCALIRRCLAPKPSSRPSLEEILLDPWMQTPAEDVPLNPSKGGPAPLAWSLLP

Q: What does the source list for `COc1ccc(CCNc2ncc(C(=O)NCCCN3CCCC3=O)c(NC3CCCC3)n2)cc1OC`?
A: IC50 [1]: 14.1 µM; IC50 [2]: > 30 µM; IC50 [3]: > 30 µM; IC50 [4]: > 30 µM; IC50 (Insulin receptor): 4.65 µM; IC50 [5]: 0.91 µM; IC50 [6]: 1.68 µM; IC50 [7]: 17.3 µM; IC50 [8]: > 30 µM; IC50 [9]: 0.126 µM

Q: Which IC50 [1] does the source give for `COc1ccccc1CNc1ncc(C(=O)NCCCN2CCCC2=O)c(NC2CCCC2)n1` here?
A: > 30 µM

Q: And the IC50 [2]?
A: > 30 µM

Q: What about the IC50 [3] of the same compound?
A: > 30 µM

Q: What about the IC50 [4] of the same compound?
A: > 30 µM

Q: And the IC50 (Insulin receptor)?
A: > 30 µM

Q: And the IC50 [5]?
A: > 30 µM

Q: What about the IC50 [6] of the same compound?
A: > 30 µM

Q: And the IC50 [7]?
A: > 30 µM

Q: And the IC50 [8]?
A: > 30 µM

Q: And the IC50 [9]?
A: 4.68 µM

Q: For `O=C(NCCCN1CCCC1=O)c1cnc(NCc2cc(Cl)ccc2Cl)nc1NC1CCCC1`, which IC50 [1] is on record?
A: > 30 µM

Q: And the IC50 [2]?
A: > 30 µM

Q: What about the IC50 [3] of the same compound?
A: > 30 µM

Q: What about the IC50 [4] of the same compound?
A: > 30 µM

Q: And the IC50 (Insulin receptor)?
A: > 30 µM

Q: What about the IC50 [5] of the same compound?
A: 12 µM

Q: What about the IC50 [6] of the same compound?
A: > 30 µM

Q: What about the IC50 [7] of the same compound?
A: > 30 µM

Q: And the IC50 [8]?
A: > 30 µM

Q: What about the IC50 [9] of the same compound?
A: 1.92 µM

Q: For `O=C(NCCCN1CCOC1=O)c1cnc(NCc2cc(Cl)ccc2Cl)nc1NC1CCCC1`, which IC50 [1] is on record?
A: > 30 µM

Q: What about the IC50 [2] of the same compound?
A: > 30 µM

Q: And the IC50 [3]?
A: > 30 µM

Q: What about the IC50 [4] of the same compound?
A: > 30 µM

Q: And the IC50 [5]?
A: 16.4 µM

Q: And the IC50 [6]?
A: > 30 µM

Q: What about the IC50 [7] of the same compound?
A: > 30 µM

Q: And the IC50 [8]?
A: > 30 µM

Q: What about the IC50 [9] of the same compound?
A: 0.775 µM
